# Data from the supplement of paper PMC10307832.
# Key:
# Test in all cases: relative viability (nuclei count vs DMSO), 5 days (fraction); higher = more cells survive
# [1] = compound: CC1=NN=C(O1)C2=NN=C(C=C2)N3CCC(CC3)OC4=C(C=CC(=C4)F)Cl + NC(=O)Nc1cc(-c2cccc(F)c2)sc1C(=O)N[C@H]1CCCNC1 [AZD7762] (partner 0.2 µM)
# Method in brief: (§1)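 Lung cancer cell lines, seeded in 1536-well plates, were treated the following day by pin tool with a single drug or with five library-drug doses (not always all listed) in √10 steps on top of a fixed anchor-drug dose. Cells were fixed and nuclei stained in one step after 5 days, and nuclei were counted. Relative viability is the nuclei count for treated wells divided by that for vehicle wells, reported as medians of duplicate plates.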
# Tosedostat + Bortezomib = compound: CC(C)C[C@@H](C(=O)N[C@H](C(=O)OC1CCCC1)c1ccccc1)[C@H](O)C(=O)NO [Tosedostat] + CC(C)C[C@H](NC(=O)[C@H](Cc1ccccc1)NC(=O)c1cnccn1)B(O)O [Bortezomib] (partner 0.002 µM)
# Method in brief: as §1
# [2] = compound: CC1=NN=C(O1)C2=NN=C(C=C2)N3CCC(CC3)OC4=C(C=CC(=C4)F)Cl + N=C(N)NC(=N)NCCc1ccccc1 [Phenformin] (partner 250 µM)
# Method in brief: as §1
# Tosedostat + Vorinostat = compound: CC(C)C[C@@H](C(=O)N[C@H](C(=O)OC1CCCC1)c1ccccc1)[C@H](O)C(=O)NO [Tosedostat] + O=C(CCCCCCC(=O)Nc1ccccc1)NO [Vorinostat] (partner 1 µM)
# Method in brief: as §1
Cell Line,relative viability ([1]; first compound 0.253 µM),relative viability ([1]; first compound 0.8 µM),relative viability ([1]; first compound 2.53 µM),relative viability ([1]; first compound 8 µM),relative viability (Tosedostat + Bortezomib; first compound 0.02 µM),relative viability (Tosedostat + Bortezomib; first compound 0.06325 µM),relative viability (Tosedostat + Bortezomib; first compound 0.2 µM),relative viability (Tosedostat + Bortezomib; first compound 0.6325 µM),relative viability (Tosedostat + Bortezomib; first compound 2 µM),relative viability ([2]; first compound 0.253 µM),relative viability ([2]; first compound 0.8 µM),relative viability ([2]; first compound 2.53 µM),relative viability ([2]; first compound 8 µM),relative viability (Tosedostat + Vorinostat; first compound 0.02 µM),relative viability (Tosedostat + Vorinostat; first compound 0.06325 µM),relative viability (Tosedostat + Vorinostat; first compound 0.2 µM),relative viability (Tosedostat + Vorinostat; first compound 0.6325 µM),relative viability (Tosedostat + Vorinostat; first compound 2 µM)
HCC-44,0.388,0.609,0.495,0.452,0.886,0.883,0.937,0.793,0.459,0.267,0.167,0.178,0.157,1.26,1.07,1.09,1.04,1.07
HCC-827,0.299,0.158,0.213,0.2,1.1,1.04,1.07,1,1.01,0.388,0.258,0.354,0.36,0.545,0.94,0.861,0.73,0.718
NCI-H1623,,,,,,,,,,0.568,0.545,0.627,0.574,,,,,
NCI-H441,0.621,0.632,0.69,0.608,0.471,0.396,0.332,0.396,0.404,0.715,0.498,0.699,0.619,0.809,0.654,0.759,0.55,0.547
NCI-H1734,0.612,0.413,0.672,0.662,1.07,0.942,0.907,0.89,0.786,0.429,0.32,0.405,0.395,0.949,0.757,0.886,0.612,0.514
HARA,0.416,0.305,0.387,0.337,1.16,1.08,1.1,1.1,0.942,0.306,0.211,0.334,0.266,1.35,0.531,0.544,0.377,0.295
NCI-H1703,0.097,0.129,0.153,0.0983,0.447,0.297,0.235,0.221,0.301,,,,,,,,,
NCI-H1395,0.377,0.378,0.392,0.404,,,,,,0.453,0.398,0.439,0.429,0.773,0.77,0.743,0.742,0.595
NCI-H1355,0.571,0.385,0.773,0.692,1.2,1.14,1.09,0.987,1.07,0.405,0.37,0.446,0.411,0.654,0.631,0.705,0.543,0.604
LXF-289,0.898,0.757,1.12,0.967,1.05,0.992,0.974,0.978,0.989,0.509,0.393,0.504,0.465,0.818,0.716,0.822,0.703,0.771
NCI-H1563,,,,,0.924,0.818,0.943,0.948,0.8,0.646,0.659,0.612,0.641,,,,,
